This passage reports relative viability results from the supplement of paper PMC10307832.

What all share (assay): relative viability (nuclei count vs DMSO), 5 days (fraction); higher = more cells survive
Compound in the assay “Dasatinib + Bortezomib”: Cc1nc(Nc2ncc(C(=O)Nc3c(C)cccc3Cl)s2)cc(N2CCN(CCO)CC2)n1 [Dasatinib] + CC(C)C[C@H](NC(=O)[C@H](Cc1ccccc1)NC(=O)c1cnccn1)B(O)O [Bortezomib] (partner 0.002 µM)
In a few lines:
(§1)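 Nuclei were stained with Hoechst during a one-step fixation (final 0.05% Triton X-100, 1% formaldehyde, 1 ug/ml Hoechst) carried out 5 days after dosing, then counted on 4× images. The cells, lung cancer lines in 1536-well plates, had been dosed by pin tool the day after seeding with one drug alone or a fixed anchor-drug dose plus five library-drug doses (not always all listed) in √10 steps. Relative viability is the nuclei count in treated wells divided by that in vehicle wells, and each value is the median of duplicate plates.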

Compound in the assay “ALW-II-49-7 + Dasatinib”: Cc1ccc(C(=O)Nc2cccc(C(F)(F)F)c2)cc1Nc1cncc(C(N)=O)c1 [ALW-II-49-7] + Cc1nc(Nc2ncc(C(=O)Nc3c(C)cccc3Cl)s2)cc(N2CCN(CCO)CC2)n1 [Dasatinib] (partner 0.075 µM)
In a few lines:
as §1

Compound in the assay “XMD13-2 + Olaparib”: C1CC1C(=O)NC2=NNC3=C2C=CC(=C3)C4=CC(=CC=C4)C(=O)NC5CC5 [XMD13-2] + O=C(c1cc(Cc2n[nH]c(=O)c3ccccc23)ccc1F)N1CCN(C(=O)C2CC2)CC1 [Olaparib] (partner 8 µM)
In a few lines: as §1

Compound in the assay “XMD13-2 + Linsitinib”: C1CC1C(=O)NC2=NNC3=C2C=CC(=C3)C4=CC(=CC=C4)C(=O)NC5CC5 [XMD13-2] + C[C@]1(O)C[C@@H](c2nc(-c3ccc4ccc(-c5ccccc5)nc4c3)c3c(N)nccn32)C1 [Linsitinib] (partner 1 µM)
In a few lines: as §1

Take UMC-11: the relative viability was determined as 0.668 with Dasatinib + Bortezomib (first compound 0.005 µM); 0.688 with Dasatinib + Bortezomib (first compound 0.01581 µM); 0.806 with Dasatinib + Bortezomib (first compound 0.05 µM); 0.313 in the assay with Dasatinib + Bortezomib (first compound 0.1581 µM); 0.291 with Dasatinib + Bortezomib (first compound 0.5 µM); 0.428 in the assay with ALW-II-49-7 + Dasatinib (first compound 0.08 µM). Moreover, the relative viability was found to be 0.453 with ALW-II-49-7 + Dasatinib (first compound 0.253 µM); 0.473 in the assay with ALW-II-49-7 + Dasatinib (first compound 0.8 µM); 0.456 in the assay with ALW-II-49-7 + Dasatinib (first compound 2.53 µM); 0.519 with ALW-II-49-7 + Dasatinib (first compound 8 µM); 0.528 with XMD13-2 + Olaparib (first compound 0.05 µM); 0.407 with XMD13-2 + Olaparib (first compound 0.1581 µM). Moreover, the relative viability in the assay with XMD13-2 + Olaparib (first compound 0.5 µM) stood at 0.39; with XMD13-2 + Olaparib (first compound 1.581 µM), 0.364; in the assay with XMD13-2 + Olaparib (first compound 5 µM), 0.318; with XMD13-2 + Linsitinib (first compound 0.05 µM), 1.18; with XMD13-2 + Linsitinib (first compound 0.1581 µM), 0.942; with XMD13-2 + Linsitinib (first compound 0.5 µM), 0.996. The relative viability amounted to 1.07 in the assay with XMD13-2 + Linsitinib (first compound 1.581 µM) and 1.04 with XMD13-2 + Linsitinib (first compound 5 µM).
